Assay results: US12728181B2, “Solution blow spun polymer constructs, compositions and methods of fabrications and uses relating thereto” (University of Maryland, College Park, priority 2019, dated 2026)

Experiments:
[1] = tested on: small model bacterial inoculation; conditions: cited from earlier work
keratinocytes = conditions: cited from earlier work
fibroblasts = conditions: cited from earlier work
mouse = conditions: in vivo, ip
Excerpt: To determine the potential immune response to the fast-degrading components of the PSTA, we employed an intraperitoneal space implantation mouse model used to evaluate fibrosis (Doloff, J. C. et al. (2017) Colony Stimulating Factor-1 Receptor Is a Central Component of the Foreign Body Response to Biomaterial Implants in Rodents and Non-Human Primates, Nat. Mater. 16(6):671).

fibrotic adhesions to the fat pads (mouse) | Molecule | minimum inhibitory concentration (MIC) ([1]; inoculation of the same size) | minimum bactericidal concentration (MBC) ([1]; small model bacterial inoculation) | 24 hour cytotoxic limit (KCC) (keratinocytes) [µM] | 24 hour cytotoxic limit (FCC) (fibroblasts)
 | [Ag+] [Ag^+] | about 5 μM | approximately 20 μM | 500 | approximately 50 μM
no adhesions to the fat pad | poly(lactide-co-caprolactone) [LMW PLCL] |  |  |  | 
